The text below walks through data of article PMC5366949, “The toxicity of angiotensin converting enzyme inhibitors to larvae of the disease vectors Aedes aegypti and Anopheles gambiae” (Scientific Reports, 2017).

SMILES strings stand for the structures. Where two headings read alike, the source gives them in different places.

For assay [1], the system named is T1, Ae. aegypti larval ACE (soluble peptidyl dipeptidase activity).
T1 construct: native; 55,000 g supernatant of whole 3rd instar larval homogenate, not purified; gene(s) not identified for this species
As to the kind of experiment: fluorogenic peptidase assay, larval high-speed supernatant. Particulars: substrate Abz-Phe-Arg-Lys(Dnp)-Pro-OH about 25 uM, pH 7.5, 50 mM NaCl, 10 uM ZnCl2, 20 C, 10 min pre-incubation, read-out: Aedes aegypti / IC50. Type of assay: biochemical. The source says: fluorogenic peptidase assay, larval high-speed supernatant on Ae. aegypti larval ACE (soluble peptidyl dipeptidase activity)

The subject of assay [2] is T2, An. gambiae larval ACE (soluble peptidyl dipeptidase activity; one or both of AnoACE2 and AnoACE3).
T2 construct: native; 55,000 g supernatant of whole 3rd instar larval homogenate, not purified; AnoACE2 and/or AnoACE3 inferred by the authors from soluble activity and larval expression
The assay is described as above. Type of assay: biochemical. As to conditions: substrate Abz-Phe-Arg-Lys(Dnp)-Pro-OH about 25 uM, pH 7.5, 50 mM NaCl, 10 uM ZnCl2, 20 C, 10 min pre-incubation, read-out: Anopheles gambiae / IC50. An excerpt:
fluorogenic peptidase assay, larval high-speed supernatant on An. gambiae larval ACE (soluble peptidyl dipeptidase activity; one or both of AnoACE2 and AnoACE3)

Turning to `CCC(=O)O[C@@H](O[P@](=O)(CCCCc1ccccc1)CC(=O)N1C[C@H](C2CCCCC2)C[C@H]1C(=O)O)C(C)C` [fosinopril], the IC50 is 0.373 µM in assay [1] (pro-drug ester of fosinoprilat) and 0.326 µM in assay [2] (pro-drug ester of fosinoprilat).
Turning to `C[C@H](CS)C(=O)N1CCC[C@H]1C(=O)O` [captopril], the IC50 in assay [1] was found to be 0.00247 µM; in assay [2], 0.0167 µM.
Taken in the same sequence, the figures for `O=C(O)[C@@H]1C[C@@H](C2CCCCC2)CN1C(=O)CP(=O)(O)CCCCc1ccccc1` [fosinoprilat] were 0.00661 µM and 0.0352 µM.
